How the values were obtained:
in vitro = conditions: human
Protocol: (§1) For the antiviral assay utilizing MT4 cells, 0.4 μL of […] test concentration of 3-fold serially diluted compound in DMSO was added to 40 μL of cell growth medium (RPMI 1640, 10% FBS, 1% penicilline/Streptomycine, 1% L-Glutamine, 1% HEPES) in each well of 384-well assay plates (10 concentrations) in quidruplicate.
(§2) 1 mL aliquots of 2×10^6 MT4 cells are pre-infected for 1 and 3 hours respectively at 37° C. with 25 μL (MT4) or of either cell growth medium (mock-infected) or a fresh 1:250 dilution of an HIV-IIIb concentrated ABI stock (0.004 m.o.i. for MT4 cells). Infected and uninfected cells are diluted in cell growth medium and 35 μL of 2000 (for MT4) cells is added to each well of the assay plates.
(§3) Assay plates were then incubated in a 37° C. incubator. After 5 days of incubation, 25 μL of 2× concentrated CellTiter-GloT Reagent (catalog # G7573, Promega Biosciences, Inc., Madison, Wis.) was added to each well of the assay plate. Cell lysis was carried out by incubating at room temperature for 2-3 minutes, and then chemiluminescence was read using the Envision reader (PerkinElmer).

MT4 cells = assay: Cytotoxicity (CC50) in MT4 cells, mock-infected; conditions: read-out: CC50 nM in MT-4; MT4 cells, 5 days, CellTiter-Glo
Protocol: as §1, §2, §3

[1] = Pharmacokinetic analysis following oral administration to beagle dogs; format: in vivo; conditions: beagle dog, 1 mg/kg
Protocol: Pharmacokinetic analysis was performed on various test compounds following intravenous or oral administration to beagle dogs.
For pharmacokinetic analysis of intravenously administered compounds, the test compounds were formulated in 5% Ethanol, 55% PEG 300, and 40% water at 0.1 mg/mL for IV infusion. For pharmacokinetic analysis of orally administered compounds, the test compounds were formulated as an aqueous suspension in 0.1% Tween 20, 0.5% HPMC LV100 in Di Water at 1 mg/kg.
Each dosing group consisted of 3 male, non-naïve purebred beagle dogs. At dosing, the animals weighed between 10 to 13 kg. The animals were fasted overnight prior to dose administration and up to 4 hr after dosing. For studies of intravenous administration, the test article was administered to the animals by intravenous infusion over 30 min. The rate of infusion was adjusted according to the body weight of each animal to deliver a dose of 0.5 mg/kg. […]
For pharmacokinetic analysis of orally administered compounds, serial venous blood samples (approximately 0.3 mL each) were taken from each animal at time points of 0, 0.25, 0.50, 1.0, 2.0, 4.0, 6.0, 8.0, 12.0 and 24.0 hours after dosing. Blood samples were collected, prepared and analyzed in a similar way to the intranveous studies described above. […]

human PXR (NR1I2) = human PXR (NR1I2) (Homo sapiens (Human), UniProt O75469); assay: Human PXR activation assay (luciferase reporter gene, DPX2 cells); format: cell-based; conditions: relative to maximum fold induction by 10 or 20 μM rifampicin
Protocol: A stably transformed tumor cell line (DPX2) was plated on 96-well microtiter plates. DPX2 cells harbor the human PXR gene (NR1I2) and a luciferase reporter gene linked to two promoters identified in the human CYP3A4 gene, namely XREM and PXRE. […] The number of viable cells was determined and the reporter gene activity was assessed. Positive control: […]

[2] = MT4 cells, mock-infected (uninfected)

human PXR (NR1I2), sequence (O75469 whole entry): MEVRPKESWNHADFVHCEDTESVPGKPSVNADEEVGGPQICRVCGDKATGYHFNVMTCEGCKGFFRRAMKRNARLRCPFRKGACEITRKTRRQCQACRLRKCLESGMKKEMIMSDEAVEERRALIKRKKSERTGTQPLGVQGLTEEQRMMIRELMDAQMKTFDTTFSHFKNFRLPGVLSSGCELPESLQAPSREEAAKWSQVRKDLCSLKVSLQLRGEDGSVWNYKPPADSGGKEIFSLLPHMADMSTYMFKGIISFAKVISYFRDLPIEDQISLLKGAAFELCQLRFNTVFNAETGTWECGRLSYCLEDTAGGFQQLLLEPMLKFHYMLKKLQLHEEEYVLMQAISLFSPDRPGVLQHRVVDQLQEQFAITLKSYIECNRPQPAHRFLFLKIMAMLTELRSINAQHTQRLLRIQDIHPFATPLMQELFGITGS

O=C(NCc1ccc(F)cc1F)c1cn2c(c(O)c1=O)C(=O)N1[C@@H]3COC[C@@H](C3)O[C@H]1C2 (racemic) [50/51, N-(2,4-difluorobenzyl)-9-hydroxy-8,10-dioxo-2,3,5,6,8, 10,14,14a-octahydro-2,6-methanopyrido[1′,2′:4,5]pyrazino[2,1-b][1,6,3]dioxazocine-11-carboxamide]
CC50 at 5 days (in vitro): 37.2 µM

O=C(NC1(c2ccc(F)cc2F)CCCCC1)c1cn2c(c(O)c1=O)C(=O)N1C(C2)O[C@H]2CC[C@@H]1C2 (stereo partly drawn) [Compound 34, (2S,5R)—N-(1-(2,4-difluorophenyl)cyclohexyl)-8-hydroxy-7,9-dioxo-2,3,4,5,7,9,13,13a-octahydro-2,5-methanopyrido[1′,2′:4, 5]pyrazino[2,1-b][1,3]oxazepine-10-carboxamide]
CC50 (MT4 cells): 3580 nM

O=C(NCc1c(F)cc(F)cc1F)c1cn2c(c(O)c1=O)C(=O)N1[C@H]3CC[C@H](C3)O[C@@H]1C2 [Compound 42, (2R,5S,13aR)-8-hydroxy-7,9-dioxo-N-(2,4,6-trifluorobenzyl)-2,3,4,5,7,9,13,13a-octahydro-2,5-methanopyrido[1′,2′:4,5]pyrazino[2,1-b][1,3]oxazepine-10-carboxamide]
F (%) aqueous suspension [1]: 28.0%

O=C(NCc1c(F)cc(F)cc1F)c1cn2c(c(O)c1=O)C(=O)N1[C@H]3CC[C@H](CC3)[C@H]1C2 [Compound 101, (1R,4R,12aS)-7-hydroxy-6,8-dioxo-N-(2,4,6-trifluorobenzyl)-1,2,3,4,6,8,12,12a-octahydro-1,4-ethanodipyrido[1,2-a:1′,2′-d]pyrazine-9-carboxamide]
CC50 at 5 days (in vitro; [2]): 11.6 µM

O=C(NCc1c(F)cc(F)cc1F)c1cn2c(c(O)c1=O)C(=O)N1[C@H]3CC[C@H](CC3)[C@@H]1C2 [Compound 102, (1S,4S,12aR)-7-hydroxy-6,8-dioxo-N-(2,4,6-trifluorobenzyl)-1,2,3,4,6,8,12, 12a-octahydro-1,4-ethanodipyrido[1,2-a:1′,2′-d]pyrazine-9-carboxamide]
CC50 at 5 days (in vitro; [2]): 12 µM
Emax at 24 h, 15 µM (human PXR (NR1I2)): 123%

— patent US9732092B2, “Substituted 2,3,4,5,7,9,13,13a-octahydropyrido[1′,2′:4,5]pyrazino[2,1-b][1,3]OXAZEPINES and methods for treating viral infections” (Gilead Sciences, Inc., priority 2012, dated 2017)
